Laboratory results from patent US6469137B1, “Myelopeptides and their therapeutic use” (Primamedic, Ltd, priority 1997, dated 2002).
Where a SMILES comes first, the peptide text is derived from it.

Legend:
MT4 cells = assay type: cell-based, human
Procedure: The HIV-infected MT4 cells were incubated in RPMI-1640 culture medium supplemented with 10% FBS and 2 mM L-glutamine. The MT4 cells (0.5 million cells per 1 ml of culture medium) were placed in wells of a 24-well plastic culture plates and kept for 7 days of 37° C. in an atmosphere of 4.5% CO2. Each of the MPs examined was added into respective wells of the culture plates, to final concentrations of 0.1, 0.5, 1, 5, 10, 50 and 100 μg per 1 ml of culture were used. Azidothymidine (Sigma Chemical Co.) at its final concentration of 0.1 μg/ml, was used as a positive anti-viral control during each of the experiments.
Azidothymidine (0.1 μg/ml) caused 100% inhibition of HIV replication in the infected MT-4 cells.

serum interferon = assay: Serum interferon increase in mice (titration on EMV-infected L929 cells); assay type: in vivo; conditions: dose and time not given
[1] = system: encephalomyocarditis virus (EMV); assay: Anti-viral activity in vitro, L929 cells infected by EMV; assay type: cell-based, mouse; conditions: pre-incubation 24 or 48 h, then 100 TCID50 of EMV
Procedure: The L929 mouse fibroblastoid cell line was maintained in vitro as described above. MP-3, MP-4, MP-5 and MP-6 were added into triplicate cultures using the following final concentrations: 500, 250, 125, 63, 31, 16, 8, 4, 2, 1, 0.5, 0.25 μg per 1 ml of culture. Ridostin was used as a control interferon-inducer.
24 or 48 h post-injection, the L929 cell cultures were infected by 100 TCID50 of EMV. During the next 24 h the viral infection caused dramatic damages in L929 cells. […] MP-5, by contrast, when added in a final concentration of 16 μg/ml or more, completely abrogated destructive influence of the virus on L929 cells. So did MP-6, when added at a concentration of 4 μg/ml or more. […] MP-4 also defended the L929 cells from the virus-induced damage, after 48 h exposure of the cells in the presence of 32 μg/ml (or higher concentration) of the preparation before their challenge by the virus.

Compound	Damage of MT4 cells (cell viability) (MT4 cells)	Serum interferon titer, level characteristic of positive control (serum interferon) [units/ml]	Concentration that completely abrogated destructive influence of the virus on L929 cells [1] [µg/mL]
CC(C)C[C@H](N)C(=O)N[C@H](C(=O)N[C@@H](CS)C(=O)N[C@@H](Cc1ccc(O)cc1)C(=O)N1CCC[C@H]1C(=O)N[C@@H](CCC(N)=O)C(=O)O)C(C)C [MP-3, LVCYPQ] (H-LVCYPQ-OH; N-terminus and C-terminus assumed)	no visible damage	–	–
CC[C@H](C)[C@H](NC(=O)[C@H](CCCNC(=N)N)NC(=O)[C@@H]1CCCN1C(=O)[C@H](CCCNC(=N)N)NC(=O)[C@@H](N)Cc1ccccc1)C(=O)N[C@@H](CCSC)C(=O)N[C@H](C(=O)N1CCC[C@H]1C(=O)O)[C@@H](C)O [MP-4, FRPRIMTP] (H-FRPRIMTP-OH; N-terminus and C-terminus assumed)	no visible damage	–	–
CC(C)[C@H](N)C(=O)N[C@H](C(=O)N[C@@H](Cc1ccc(O)cc1)C(=O)N1CCC[C@H]1C(=O)N[C@@H](CC(=O)O)C(=O)O)C(C)C [MP-5, VVYPD] (H-VVYPD-OH; N-terminus and C-terminus assumed)	no visible damage	–	–
CC(C)[C@H](N)C(=O)N[C@@H](CC(=O)O)C(=O)N1CCC[C@H]1C(=O)N1CCC[C@H]1C(=O)O [MP-6, VDPP] (H-VDPP-OH; N-terminus and C-terminus assumed)	no visible damage	–	–
Ridostin	–	320	≥ 0.5
